Assay results reported in US20250262268A1, “Methods and Compositions for Inhibiting Viral Infection” (New York Genome Center, Inc., priority 2020, published 2025).
Entries after “also recorded” stand apart in the source; their conditions may differ.

What was measured:
SARS-CoV-2 [1] = experiment: qPCR of SARS-CoV-2 viral load in non-targeting or PIK3C3 CRISPR-perturbed A549-ACE2 cells treated with PIK3C3 inhibitors; assay type: cell-based; details: 10 μM, 2 hours pretreatment, MOI 0.1, 36 hpi
[2] = test system: primary human CD8+ T-cells; experiment: T cell activation, intracellular cytokine staining after CD3/CD28 stimulation; assay type: cell-based; details: 10 μM, 1 hour pre-incubation
SARS-CoV-2 [3] = experiment: qRT-PCR of SARS-CoV-2 viral load in inhibitor-treated A549-ACE2 cells; assay type: cell-based, SARS-CoV-2 isolate USA-WA1/2020; details: 10 μM inhibitor, MOI 0.1, 36 hpi

For `Nc1ncc(-c2ccnc(Nc3ccncc3)n2)c(CC2CC2)n1` [PIK-III], which “specificity for PIK3C3: viral inhibition in PIK3C3 CRISPR-perturbed versus non-targeting cells” value (SARS-CoV-2 [1]) is on record?
The value was “specific”.

`C[C@@H]1COCCN1c1cc(=O)n2c(n1)N(Cc1cncc(Cl)c1)[C@H](C(F)(F)F)CC2` [SAR405] was tested. Which “specificity for PIK3C3: viral inhibition in PIK3C3 CRISPR-perturbed versus non-targeting cells” value (SARS-CoV-2 [1]) did it give?
The value was “greater viral inhibition in PIK3C3 CRISPR-perturbed cells; also recorded: may have some off-target effects”.

Which “specificity for PIK3C3: viral inhibition in PIK3C3 CRISPR-perturbed versus non-targeting cells” value (SARS-CoV-2 [1]) does the source give for `Cc1cc(Nc2cc(Cl)nc(Oc3ccc([N+](=O)[O-])cc3)n2)n[nH]1` [autophinib, Autophinib] here?
Its value is “specific”.

`CC[C@H](Nc1ncnc2[nH]cnc12)c1nc2cccc(F)c2c(=O)n1-c1ccccc1` [idelalisib, Idelalisib] was tested. Which “release of interferon-gamma (IFNγ) by CD8+ T-cells” value [2] did it give?
The value was “significant reduction”.

And the “release of tumor necrosis factor (TNF) by CD8+ T-cells” value [2]?
The value was “significant reduction”.

`CC/C(=C(\c1ccccc1)c1ccc(OCCN(C)C)cc1)c1ccccc1` [tamoxifen, Tamoxifen] was tested. Which “effect on T-cell activation and cytokine secretion” value [2] did it give?
The value was “no effect”.

And the “reduction in SARS-CoV-2 viral load (in words)” value (SARS-CoV-2 [3])?
The value was “substantial reduction”.
